Source: patent publication US20210041441A1, “DISCOVERY OF NOVEL MOLECULES AND REPURPOSED DRUGS FOR RAS FAMILY GTPases” (UNM Rainforest Innovations, priority 2018, published 2021)
pIC50, pKd: −log10 of the molar value. “Also recorded” adds a separate entry of the source. Structures can show the parent of a compound that is named as a salt.

What was measured:
[1] = system: H-Ras, H-RasG12V, Rab and Rho subfamilies; conditions: earlier studies; cited from earlier work
Q61 KRas mutants = test: Multiplex flow cytometry Bodipy FL-GTP binding, compound dose response, Q61 mutants; parameters: species or system Human; conditions: 10 nM Bodipy FL-GTP
Method: Bead Coupling: 4 μm diameter, glutathione-beads (GSH-beads), distinguished by ten different intensities of red fluorescence (varying by several orders of magnitude of emission at 665±10 nm with excitation at 635 nm) were obtained by special order from Duke Scientific Corp. Each polystyrene bead set is supplied at 1.4×10^8 beads/ml with approximately 1.2×10^6 glutathione sites per bead (determined by using GST—green fluorescent protein^42). Prior to incubation with individual GST-GTPase fusion proteins, an appropriate volume of each bead slurry was incubated for 30 minutes at room temperature in assay buffer (20 mM HEPES pH 7.5, 125 μM […], 1 mM MgCl2, 0.5 mM EDTA pH 8.0, 0.01% NP-40) supplemented with 1 mM dithiothreitol and 0.1% BSA. Following this initial incubation, passivated beads were collected by centrifugation and resuspended in assay buffer with individual GST-GTPase fusion proteins at a final concentration of […]. Overnight coupling reactions were carried out at 4° C. with rotation. The amount of each bead type used for coupling and the final volume of the coupling reaction was determined by the experimental protocol. Typically, bead sets are used at a final concentration of 200 bead/μL. To remove unbound GST-GTPase, bead sets were washed twice by centrifugation with ice-cold assay buffer. Individually coated beads were pooled together and kept cold in an appropriate volume before use in binding assays. Bead-bound proteins are sufficiently stable to study secondary interactions between GTPase-GST chimera's and Bodipy-FL GTP^54. Note that an extra GSH-bead set is included that is not protein coupled. This set serves as a ‘scavenger’ for proteins that might dissociate during the binding assay.
For assay screening plates, compound libraries were first dispensed into columns 3-22 using a Labcyte 555 Echo Acoustic Dispenser (San Jose, Calif.) for a final concentration of 10 μM. An equal volume (10 nL) of DMSO was added to the vehicle control wells (column 2). Following the addition of library compounds, 2 μL of assay buffer was added and the plates were mixed before addition of 5 μL of the protein-coupled bead mixtures; 10 μL of assay buffer was added to empty wells in columns 1 and 24. Empty wells serve as wash wells between compound wells and control wells. Plates were mixed and incubated on a rotator for 30 minutes at 4° C. before the addition of 3 μL of Bodipy FL-GTP resulting in a final concentration 10 nM Bodipy FL-GTP. Plates were mixed and incubated for 1 hour at 4° C. Negative controls, containing bead mixtures, Bodipy FL-GTP, and 30 μM unlabeled GTP were assayed separately. Dose response plates were assembled similarly.
Data Acquisition: Assay plates were sampled using the HyperCyt™ high throughput flow cytometry platform (Intellicyt; Albuquerque, N. Mex.). During sampling, the probe moves from well to well and samples 1-2 μL from each well with 0.4 sec transit time in the air before sampling the next well. The resulting sample stream consisting of 384 bubble-separated samples is delivered to an Accuri C6 flow cytometer (BD Biosciences; San Jose, Calif.). Bodipy FL-GTP fluorescence is excited at 488 nm and detected with a 533/30 bandpass filter. […] Gating based on red fluorescence emission distinguishes the separately coated beads. […]

[2] = system: Ras family GTPases (KRas WT, G12v, G13d, G12a, G12c, G12d, Q61H, Q61L, Q61R; HRas WT, HRas G12v; CDC42 WT, CDC42 L61; Rac1 WT, Rac1 L61); test: Multiplex flow cytometry Bodipy FL-GTP binding, compound screen and dose response; conditions: for activity or affinity relative to other compounds / selectivity among GTPases (RAS vs non-RAS, individual proteins): multiplex dose response; for class of modulation of Bodipy-GTP binding to Ras family GTPases (pan activator, pan inhibitor, selective inhibitor, mixed activity modulator): multiplex, 10 nM Bodipy FL-GTP, compound 100-0.015 μM, normalized to DMSO
Method: Following this initial incubation, passivated beads were collected by centrifugation and resuspended in assay buffer with individual GST-GTPase fusion proteins at a final concentration of 1 M. Overnight coupling reactions were carried out at 4° C. with rotation. The amount of each bead type used for coupling and the final volume of the coupling reaction was determined by the experimental protocol. Typically, bead sets are used at a final concentration of 200 bead/μL. To remove unbound GST-GTPase, bead sets were washed twice by centrifugation with ice-cold assay buffer. Individually coated beads were pooled together and kept cold in an appropriate volume before use in binding assays. Bead-bound proteins are sufficiently stable to study secondary interactions between GTPase-GST chimera's and Bodipy-FL GTP^54. Note that an extra GSH-bead set is included that is not protein coupled. This set serves as a ‘scavenger’ for proteins that might dissociate during the binding assay.
Data Acquisition: Assay plates were sampled using the HyperCyt™ high throughput flow cytometry platform (Intellicyt; Albuquerque, N. Mex.). During sampling, the probe moves from well to well and samples 1-2 μL from each well with 0.4 sec transit time in the air before sampling the next well. […] Plate data are acquired as time-resolved files that are parsed by software-based well identification algorithms, segregating individual well data that is merged with compound library files to determine compound activity in each well. Gating based on red fluorescence emission distinguishes the separately coated beads. Plate performance was validated using the Z-prime calculation^58.
Dose response data points were fitted by Prism® software (GraphPad Software Inc., San Diego, Calif.) using nonlinear least-squares regression in a sigmoidal dose-response model with variable slope, also known as the 4-parameter logistic equation.
Each well of an assay plate contained 10 sets of beads with variable red fluorescent intensities. Nine protein-coupled bead sets, carrying the different GST-KRas proteins were combined with an uncoupled GSH-bead that serves as a scavenger for GST-proteins that might dissociate during the assay. Bead mixtures were dispensed into individual wells of a 384-well assay plate and incubated with fluorescent GTP in the presence of library compounds. The final concentration of reagents in each assay well was 10 μM compound, 10 nM Bodipy FL-GTP, and 0.1% DMSO. Each bead set was added at 200 beads/μL. Each plate was analyzed both in forward (starting with A1) and reverse direction to account for fluorescent compounds that can carryover during sampling and effect subsequent sample values. […] Excess GTP containing wells were evaluated separately and were used, along with the DMSO control wells, to calculate a Z′ value for each bead set. […] A secondary single point evaluation was performed on these identified primary hits.

[3] = system: KRas G12v, HRas G12V, Kras Q61R, Rac1 L61, CDC42; test: Equilibrium kinetics assays, real-time Bodipy FL-GTP association and dissociation; type: binding, Human; conditions: for displacement of pre-bound Bodipy FL-GTP: pre-binding at 4° C. or RT in the presence of Mg2+
Method: Equilibrium Kinetics Assays: GTPase-coupled beads were prepared as described above and were kept on ice until used. Reactions were performed at room temperature in amber micro-centrifuge tubes in an appropriate volume of assay buffer. Bead mixtures were initially incubated on a rotator with Guanabenz acetate (100 μM) or DMSO for 30 min at 4° C. prior to the addition of 1 nM Bodipy FL-GTP. Real-time binding kinetics was recorded using an Accuri C6 flow cytometer. Binding association was followed for 15 minutes at which time excess GTP was added. Disassociation kinetics was followed for an additional 25 minutes. Data was analyzed using GraphPad Prism software. The association time course was fitted to a two phase exponential association and the dissociation time course was fitted to a two phase decay (exponential).
To determine mechanism of action, we evaluated binding and dissociation of Bodipy FL-GTP in real-time kinetic experiments in the presence of Guanabenz acetate or GTP. Tests included pre-binding of Bodipy-FL GTP at 4′ C. or RT in the presence of Mg^2+.
It was then elected to perform association rate analysis, using the order of addition of reagents used in screening, where guanabenz was added first, incubated at 4° C., then Bodipy FL-GTP was added at room temperature.

GTPases (Rac1 and Cdc42) = conditions: in cells, earlier studies; read-out: IC50 values for inhibitory activity against the GTPases; cited from earlier work
GTPases = conditions: cited from earlier work
[4] = target: KRas proteins (Wild type, G12v, G13d, G12a, G12c, G12d, Q61L, and Q61R); test: Dose dependent Bodipy FL-GTP binding assay, KRas multiplex; parameters: species or system Human; conditions: separate KRas proteins, 1 hour at 4° C.; read-out: binding affinities
Text: Bead Coupling: 4 μm diameter, glutathione-beads (GSH-beads), distinguished by ten different intensities of red fluorescence (varying by several orders of magnitude of emission at 665±10 nm with excitation at 635 nm) were obtained by special order from Duke Scientific Corp. Each polystyrene bead set is supplied at 1.4×10^8 beads/ml with approximately 1.2×10^6 glutathione sites per bead (determined by using GST—green fluorescent protein^42). […] The amount of each bead type used for coupling and the final volume of the coupling reaction was determined by the experimental protocol. […]
Dose Dependent Bodipy FL-GTP Binding Assays: For dose dependence binding assays, GTPase-coupled bead sets were incubated on a rotator for 1 hour at 4° C. with varying concentrations of Bodipy FL-GTP (0.3-300 nM). […] Non-specific binding of Bodipy-FL GTP was assessed by incubating coupled beads with excess GTP prior to the addition of the Bodipy analogue. […]
Assay Plate Assembly: Plate assays were performed in 384-well microtiter plates (Greiner Bio-one, #784101); plates were assembled using a BioTek MultiFlo™ Microplate Dispenser. For dose-dependent Bodipy FL-GTP binding assays, total and non-specific binding were assessed by pre-incubation (30 min/4° C.) in the absence or presence of 30 μM GTP, respectively. […]

CC1(C)Cc2c(sc(NC(=S)NC(=O)c3ccccc3)c2C(=O)O)CO1 [CID1067700]
inhibitory activity on guanine nucleotide binding [1]: inhibitory activity against H-Ras and H-RasG12V; also recorded: broad spectrum inhibitor of the Rab and Rho subfamilies; also recorded: competitive inhibitor of nucleotide binding

CN(C)CC/C=C1/c2ccccc2Sc2ccc(Cl)cc21 [Chlorprothixene hydrochloride]
effect on GTP binding to Q61 KRas mutants (Q61 KRas mutants): not to Q61 KRas mutants
activity or affinity relative to other compounds [2]: most active
selectivity among GTPases (RAS vs non-RAS, individual proteins) [2]: selective for KRas WT, the KRas G12 mutants, and the HRas proteins
class of modulation of Bodipy-GTP binding to Ras family GTPases (pan activator, pan inhibitor, selective inhibitor, mixed activity modulator) ([2]; hydrochloride): selective inhibitors
class of modulation of Bodipy-GTP binding to Ras family GTPases (pan activator, pan inhibitor, selective inhibitor, mixed activity modulator) ([2]; listed as chlorprothixene hydrochloride, hydrochloride): Selective inhibitors
class of modulation of Bodipy-GTP binding to Ras family GTPases (pan activator, pan inhibitor, selective inhibitor, mixed activity modulator) ([2]; listed as chlorproxithene, hydrochloride): selective inhibition

Nc1nc2c(ncn2[C@@H]2O[C@H](COP(=O)(O)OP(=O)(O)OP(=O)(O)O)[C@@H](O)[C@H]2O)c(=O)[nH]1 [GTP]
displacement of pre-bound Bodipy FL-GTP [3]: could be displaced by GTP

N=C(N)N/N=C/c1c(Cl)cccc1Cl [Guanabenz acetate]
effect on GTP binding to Q61 KRas mutants (Q61 KRas mutants): not to Q61 KRas mutants
association of Bodipy FL-GTP ([3]; guanabenz added first at 4° C., then Bodipy FL-GTP at room temperature, KRas G12v and HRas G12V vs Kras Q61R, Rac1 L61 and CDC42): Dramatic differences in association
displacement of pre-bound Bodipy FL-GTP [3]: not able to displace Bodipy FL-GTP
dissociation of Bodipy FL-GTP ([3]; stable GTPases in the absence of Mg): did not induce dissociation
selectivity among GTPases (RAS vs non-RAS, individual proteins) [2]: selective for KRas WT, the KRas G12 mutants, and the HRas proteins
activity or affinity relative to other compounds ([2]; listed as guanabenz acetate): most active; also recorded: comparable activity to a recently described KRas inhibitor with low μM affinity
selectivity among GTPases (RAS vs non-RAS, individual proteins) ([2]; listed as guanabenz acetate): does not appear to limit selectivity to G12D
class of modulation of Bodipy-GTP binding to Ras family GTPases (pan activator, pan inhibitor, selective inhibitor, mixed activity modulator) [2]: selective inhibitors
class of modulation of Bodipy-GTP binding to Ras family GTPases (pan activator, pan inhibitor, selective inhibitor, mixed activity modulator) ([2]; listed as guanabenz acetate): Selective inhibitors

O=C1C(Cl)=C(NCCN2CCOCC2)C(=O)c2ncccc21 [NSC 663284]
effect on GTP binding to Q61 KRas mutants (Q61 KRas mutants): not to Q61 KRas mutants
class of modulation of Bodipy-GTP binding to Ras family GTPases (pan activator, pan inhibitor, selective inhibitor, mixed activity modulator) ([2]; listed as NSC663284): Selective inhibitors

O=C(c1ccccc1)c1ccc2n1CC[C@H]2C(=O)O [R-ketorolac]
pIC50 (GTPases (Rac1 and Cdc42)): 6.00 to 6.30

CC(C)(C)C(=O)Nc1ccc2c(c1)C(=O)C(=O)c1ccccc1-2 [SF1670]
effect on GTP binding to Q61 KRas mutants (Q61 KRas mutants): activates Q61 KRas mutants
selectivity among GTPases (RAS vs non-RAS, individual proteins) [2]: RAS activator, non-RAS inhibitor
class of modulation of Bodipy-GTP binding to Ras family GTPases (pan activator, pan inhibitor, selective inhibitor, mixed activity modulator) [2]: modulators with mixed activity
class of modulation of Bodipy-GTP binding to Ras family GTPases (pan activator, pan inhibitor, selective inhibitor, mixed activity modulator) ([2]; listed as SF1760): mixed activity

CN1CCN(CCCN2c3ccccc3Sc3ccc(C(F)(F)F)cc32)CC1 [Trifluperazine Hydrochloride]
effect on GTP binding to Q61 KRas mutants (Q61 KRas mutants): not to Q61 KRas mutants
class of modulation of Bodipy-GTP binding to Ras family GTPases (pan activator, pan inhibitor, selective inhibitor, mixed activity modulator) ([2]; hydrochloride): selective inhibitors
class of modulation of Bodipy-GTP binding to Ras family GTPases (pan activator, pan inhibitor, selective inhibitor, mixed activity modulator) ([2]; listed as trifluoperazine, Hydrochloride): Selective inhibitors; also recorded: weak inhibition

O=C(c1ccccc1)c1ccc2n1CCC2C(=O)O (stereo not drawn) [ketorolac]
reported activity (GTPases): inhibitors

CSc1ccc(/C=C2/C(C)=C(CC(=O)O)c3cc(F)ccc32)cc1 [sulindac sulfide]
reported activity (GTPases): inhibitors

Guanosine 5′-Triphosphate, BODIPY™ FL 2′-(or-3′)-O-(N-(2-Aminoethyl) Urethane), Trisodium Salt [Bodipy FL-GTP]
pKd [4]: 7.30 to 9.00
